Laboratory results: ChEMBL document CHEMBL4007445, “Design, synthesis, and biological evaluation of imidazo[1,2-b]pyridazine derivatives as mTOR inhibitors” (Eur J Med Chem, 2017)

Tests used:
MCF7 [1] = experiment: Growth inhibition of human MCF7 cells at 20 uM after 72 hrs by SRB assay relative to control; type: functional; settings: MCF7, 72 h, read-out: GI
HeLa = experiment: Growth inhibition of human HeLa cells at 20 uM after 72 hrs by SRB assay relative to control; type: functional; settings: read-out: GI
A549 [2] = experiment: Growth inhibition of human A549 cells at 20 uM after 72 hrs by SRB assay relative to control; type: functional; settings: A549, 72 h, read-out: GI
A-375 [3] = experiment: Growth inhibition of human A375 cells at 20 uM after 72 hrs by SRB assay relative to control; type: functional; settings: A-375, 72 h, read-out: GI
[4] = Growth inhibition of human U87 cells at 20 uM after 72 hrs by SRB assay relative to control; type: functional, U-87MG ATCC; settings: U-87 MG, read-out: GI
[5] = Antiproliferative activity against human U87 cells after 72 hrs by SRB assay; type: functional, cell-based, U-87MG ATCC; settings: U-87 MG
MCF7 [6] = experiment: Antiproliferative activity against human MCF7 cells after 72 hrs by SRB assay; type: functional, cell-based; settings: MCF7, 72 h
A549 [7] = experiment: Antiproliferative activity against human A549 cells after 72 hrs by SRB assay; type: functional, cell-based; settings: A549, 72 h
A-375 [8] = experiment: Antiproliferative activity against human A375 cells after 72 hrs by SRB assay; type: functional, cell-based; settings: A-375, 72 h
NCI-H460 = experiment: Antiproliferative activity against human NCI-H460 cells after 72 hrs by SRB assay; type: functional, cell-based; settings: NCI-H460, 72 h
HEK293 = experiment: Antiproliferative activity against HEK293 cells after 72 hrs by SRB assay; type: cell-based; settings: Homo sapiens, HEK293, 72 h
[9] = Solubility of the compound; type: physicochemical
[10] = target: Phosphatidylinositol 4,5-bisphosphate 3-kinase catalytic subunit gamma isoform (Homo sapiens) (UniProt P48736); experiment: Inhibition of human PI3K p120gamma at 10 uM using phosphatidylinositol 4,5-bisphosphate as substrate after 30 mins by HTRF assay relative to control
[11] = target: PI3-kinase p110-alpha/p85-alpha (Homo sapiens) (UniProt P27986+P42336); experiment: Inhibition of human PI3K p110alpha/p85alpha at 10 uM using phosphatidylinositol 4,5-bisphosphate as substrate after 30 mins by HTRF assay relative to control; type: protein-complex assay
[12] = target: PI3-kinase p110-delta/p85-alpha (Homo sapiens) (UniProt P27986+O00329); experiment: Inhibition of human PI3K p110delta/p85alpha at 10 uM using phosphatidylinositol 4,5-bisphosphate as substrate after 30 mins by HTRF assay relative to control; type: protein-complex assay
[13] = target: PI3K p110 beta/p85 alpha (Homo sapiens) (UniProt P27986+P42338); experiment: Inhibition of human PI3K p110beta/p85alpha at 10 uM using phosphatidylinositol 4,5-bisphosphate as substrate after 30 mins by HTRF assay relative to control; type: protein-complex assay
[14] = target: PI3-kinase p110-alpha/p85-alpha (Homo sapiens, UniProt P42336); experiment: Inhibition of human PI3K p110alpha/p85alpha using phosphatidylinositol 4,5-bisphosphate as substrate after 30 mins by HTRF assay; type: protein-complex assay
PI3-kinase p110-alpha/p85-alpha, sequence (P27986 whole entry): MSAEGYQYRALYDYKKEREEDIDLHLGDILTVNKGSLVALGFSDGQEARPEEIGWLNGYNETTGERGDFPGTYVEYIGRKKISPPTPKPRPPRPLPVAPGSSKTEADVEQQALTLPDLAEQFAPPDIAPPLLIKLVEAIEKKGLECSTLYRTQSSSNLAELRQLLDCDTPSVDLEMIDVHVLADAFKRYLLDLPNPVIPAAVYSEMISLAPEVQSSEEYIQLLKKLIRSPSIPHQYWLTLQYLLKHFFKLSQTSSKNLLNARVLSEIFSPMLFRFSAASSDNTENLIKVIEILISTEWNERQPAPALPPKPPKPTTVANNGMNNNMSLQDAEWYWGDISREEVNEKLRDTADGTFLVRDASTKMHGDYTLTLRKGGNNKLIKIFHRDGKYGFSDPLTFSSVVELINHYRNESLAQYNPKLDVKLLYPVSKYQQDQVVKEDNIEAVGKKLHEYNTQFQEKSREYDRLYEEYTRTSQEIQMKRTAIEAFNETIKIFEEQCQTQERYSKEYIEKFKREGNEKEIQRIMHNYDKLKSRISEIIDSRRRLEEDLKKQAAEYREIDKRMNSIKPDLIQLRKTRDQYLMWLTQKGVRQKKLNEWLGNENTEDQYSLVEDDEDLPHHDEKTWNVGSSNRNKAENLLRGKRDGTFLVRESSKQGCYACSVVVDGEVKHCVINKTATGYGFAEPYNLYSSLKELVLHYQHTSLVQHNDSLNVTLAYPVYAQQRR
PI3-kinase p110-alpha/p85-alpha, sequence (P42336 whole entry): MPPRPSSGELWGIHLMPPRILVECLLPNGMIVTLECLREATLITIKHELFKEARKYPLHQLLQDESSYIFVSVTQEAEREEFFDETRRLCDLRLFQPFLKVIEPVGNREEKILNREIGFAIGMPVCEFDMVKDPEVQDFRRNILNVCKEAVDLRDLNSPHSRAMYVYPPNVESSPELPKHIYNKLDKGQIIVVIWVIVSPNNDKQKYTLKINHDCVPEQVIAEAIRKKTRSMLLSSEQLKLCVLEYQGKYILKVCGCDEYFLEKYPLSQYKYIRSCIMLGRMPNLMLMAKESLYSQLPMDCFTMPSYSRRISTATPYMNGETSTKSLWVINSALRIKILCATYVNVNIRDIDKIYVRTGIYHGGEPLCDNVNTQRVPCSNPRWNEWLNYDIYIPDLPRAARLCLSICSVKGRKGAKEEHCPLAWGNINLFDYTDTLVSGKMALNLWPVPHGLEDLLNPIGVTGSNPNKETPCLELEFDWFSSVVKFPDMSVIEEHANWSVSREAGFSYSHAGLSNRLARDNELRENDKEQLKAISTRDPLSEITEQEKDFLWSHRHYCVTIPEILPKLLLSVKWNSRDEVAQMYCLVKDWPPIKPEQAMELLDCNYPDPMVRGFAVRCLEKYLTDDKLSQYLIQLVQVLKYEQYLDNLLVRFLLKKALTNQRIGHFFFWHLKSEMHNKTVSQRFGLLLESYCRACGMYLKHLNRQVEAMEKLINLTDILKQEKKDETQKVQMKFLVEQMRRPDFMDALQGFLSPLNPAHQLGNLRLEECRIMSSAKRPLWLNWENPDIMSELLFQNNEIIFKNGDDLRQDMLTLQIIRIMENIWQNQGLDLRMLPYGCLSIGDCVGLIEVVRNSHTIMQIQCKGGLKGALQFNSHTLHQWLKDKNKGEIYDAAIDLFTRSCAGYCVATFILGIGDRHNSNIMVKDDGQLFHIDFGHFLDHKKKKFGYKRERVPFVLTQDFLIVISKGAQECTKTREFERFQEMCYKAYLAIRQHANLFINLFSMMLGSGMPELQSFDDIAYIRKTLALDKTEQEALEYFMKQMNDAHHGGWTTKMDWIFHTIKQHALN

PI3K p110 beta/p85 alpha (Homo sapiens), sequence (P27986 2-724 limits assumed): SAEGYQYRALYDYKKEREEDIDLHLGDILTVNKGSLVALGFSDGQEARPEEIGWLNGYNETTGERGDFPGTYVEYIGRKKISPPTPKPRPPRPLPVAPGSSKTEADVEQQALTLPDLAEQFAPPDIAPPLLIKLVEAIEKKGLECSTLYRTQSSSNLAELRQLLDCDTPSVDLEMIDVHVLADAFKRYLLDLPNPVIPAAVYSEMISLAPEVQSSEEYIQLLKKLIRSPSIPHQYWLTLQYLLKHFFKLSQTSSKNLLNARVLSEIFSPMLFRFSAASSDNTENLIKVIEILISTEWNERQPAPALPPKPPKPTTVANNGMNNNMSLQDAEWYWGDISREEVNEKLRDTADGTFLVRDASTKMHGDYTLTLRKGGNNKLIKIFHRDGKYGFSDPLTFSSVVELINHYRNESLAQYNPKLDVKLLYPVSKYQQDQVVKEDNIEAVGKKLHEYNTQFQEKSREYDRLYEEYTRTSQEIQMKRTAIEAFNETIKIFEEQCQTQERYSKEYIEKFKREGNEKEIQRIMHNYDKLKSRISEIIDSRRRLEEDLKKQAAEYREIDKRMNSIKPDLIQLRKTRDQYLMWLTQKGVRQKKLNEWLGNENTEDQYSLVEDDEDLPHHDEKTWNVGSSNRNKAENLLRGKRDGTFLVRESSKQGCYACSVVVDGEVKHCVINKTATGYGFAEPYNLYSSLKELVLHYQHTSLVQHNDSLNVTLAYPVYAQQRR
PI3K p110 beta/p85 alpha (Homo sapiens), sequence (P42338 whole entry partner): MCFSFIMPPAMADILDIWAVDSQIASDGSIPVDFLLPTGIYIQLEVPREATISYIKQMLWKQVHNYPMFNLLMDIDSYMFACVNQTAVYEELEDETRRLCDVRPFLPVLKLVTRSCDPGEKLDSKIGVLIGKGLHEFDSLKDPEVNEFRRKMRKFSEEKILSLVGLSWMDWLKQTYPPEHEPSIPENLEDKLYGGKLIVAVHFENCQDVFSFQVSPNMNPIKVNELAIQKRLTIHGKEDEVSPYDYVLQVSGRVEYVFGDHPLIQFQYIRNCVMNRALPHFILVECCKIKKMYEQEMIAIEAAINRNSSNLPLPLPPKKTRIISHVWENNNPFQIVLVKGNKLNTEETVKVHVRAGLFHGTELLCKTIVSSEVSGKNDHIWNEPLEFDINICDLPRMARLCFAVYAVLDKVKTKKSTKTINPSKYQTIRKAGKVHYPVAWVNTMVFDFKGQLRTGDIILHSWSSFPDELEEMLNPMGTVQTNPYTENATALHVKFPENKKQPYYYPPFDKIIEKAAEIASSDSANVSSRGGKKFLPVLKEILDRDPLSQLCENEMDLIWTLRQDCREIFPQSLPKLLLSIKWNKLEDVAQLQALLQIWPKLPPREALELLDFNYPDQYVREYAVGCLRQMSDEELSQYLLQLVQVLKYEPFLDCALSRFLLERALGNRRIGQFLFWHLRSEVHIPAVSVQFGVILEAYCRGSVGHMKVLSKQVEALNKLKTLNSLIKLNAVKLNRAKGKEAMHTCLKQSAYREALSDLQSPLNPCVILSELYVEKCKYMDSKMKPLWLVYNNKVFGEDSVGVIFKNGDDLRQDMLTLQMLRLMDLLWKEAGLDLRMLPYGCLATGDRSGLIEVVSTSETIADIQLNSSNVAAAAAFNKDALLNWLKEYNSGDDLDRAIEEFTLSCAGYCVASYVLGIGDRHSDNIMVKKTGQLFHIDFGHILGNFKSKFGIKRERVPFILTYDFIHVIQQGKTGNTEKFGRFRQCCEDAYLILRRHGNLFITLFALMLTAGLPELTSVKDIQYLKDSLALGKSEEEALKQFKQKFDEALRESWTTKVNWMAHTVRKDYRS
Phosphatidylinositol 4,5-bisphosphate 3-kinase catalytic subunit gamma isoform (Homo sapiens), sequence (P48736 whole entry, looked up, canonical isoform): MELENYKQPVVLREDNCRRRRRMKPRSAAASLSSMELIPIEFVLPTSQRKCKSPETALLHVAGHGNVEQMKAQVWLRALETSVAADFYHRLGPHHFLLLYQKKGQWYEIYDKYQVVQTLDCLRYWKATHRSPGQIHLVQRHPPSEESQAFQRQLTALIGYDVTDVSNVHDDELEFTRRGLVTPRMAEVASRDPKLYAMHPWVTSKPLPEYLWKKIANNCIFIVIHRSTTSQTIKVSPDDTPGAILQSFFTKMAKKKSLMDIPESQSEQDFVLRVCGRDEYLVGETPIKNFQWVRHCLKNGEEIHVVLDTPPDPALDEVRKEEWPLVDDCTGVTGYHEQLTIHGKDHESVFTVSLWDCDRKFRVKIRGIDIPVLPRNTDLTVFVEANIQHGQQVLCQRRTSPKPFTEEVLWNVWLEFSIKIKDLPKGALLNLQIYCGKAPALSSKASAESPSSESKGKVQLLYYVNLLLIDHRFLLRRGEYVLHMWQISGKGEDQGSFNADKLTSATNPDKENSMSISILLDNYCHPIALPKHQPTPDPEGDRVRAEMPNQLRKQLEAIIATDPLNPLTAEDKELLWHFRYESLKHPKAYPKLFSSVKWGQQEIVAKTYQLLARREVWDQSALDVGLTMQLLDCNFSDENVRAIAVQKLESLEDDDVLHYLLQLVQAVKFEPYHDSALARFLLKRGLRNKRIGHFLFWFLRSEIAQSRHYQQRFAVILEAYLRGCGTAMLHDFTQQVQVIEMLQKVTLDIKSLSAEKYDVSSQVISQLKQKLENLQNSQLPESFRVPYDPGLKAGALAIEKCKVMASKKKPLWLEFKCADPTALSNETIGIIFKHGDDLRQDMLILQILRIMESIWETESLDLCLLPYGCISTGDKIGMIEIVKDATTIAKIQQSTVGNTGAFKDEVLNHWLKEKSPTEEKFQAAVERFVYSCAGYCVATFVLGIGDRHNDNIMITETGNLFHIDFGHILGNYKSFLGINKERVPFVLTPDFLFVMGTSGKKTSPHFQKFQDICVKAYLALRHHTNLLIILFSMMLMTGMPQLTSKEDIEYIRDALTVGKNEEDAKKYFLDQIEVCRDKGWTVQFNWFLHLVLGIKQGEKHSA

Row | Compound | inhibition of growth at 20 µM (MCF7 [1]) [%] | inhibition of growth at 20 µM (HeLa) [%] | inhibition of growth at 20 µM (A549 [2]) [%] | inhibition of growth at 20 µM (A-375 [3]) [%] | inhibition of growth at 20 µM [4] [%] | IC50 [5] [µM] | IC50 (MCF7 [6]) [µM] | IC50 (A549 [7]) [µM] | IC50 (A-375 [8]) [µM] | IC50 (NCI-H460) [µM] | IC50 (HEK293) [µM] | solubility [9] | inhibition [10] [%] | inhibition [11] [%] | inhibition [12] [%] | inhibition [13] [%] | IC50 [14] [µM]
1 | OCc1cccc(-c2cc(N3CCOCC3)c3ncc(C4CCN(Cc5cccnc5)CC4)n3n2)c1 | 46.2 | 19.4 | 30.2 | 12.5 | 7.8 | – | – | – | – | – | – | – | – | – | – | – | –
2 | C[C@H]1COCCN1c1cc(-c2ccc3[nH]ccc3c2)nn2c(C3CCN(C(=O)c4cccnc4)CC3)cnc12 | 75.6 | 34.2 | 57 | 96.7 | 58.3 | 10 | 9.9 | 11.6 | 4.1 | – | – | – | – | – | – | – | –
3 | O=C(Nc1ccc(-c2cc(N3CC4CCC(C3)O4)c3nccn3n2)cc1)Nc1cccnc1 | – | – | – | – | – | 5.8 | 37.9 | 1.1 | 4.7 | 0.65 | 9 | – | – | – | – | – | –
4 | O=C(Nc1ccc(-c2cc(N3CCOCC3)c3nccn3n2)cc1)Nc1cccnc1 | – | – | – | – | – | 20 | 17.7 | 0.22 | 15.7 | 1 | 1.4 | – | – | – | – | – | –
5 | C[C@H]1COCCN1c1cc(-c2cnc(N)nc2)nn2c(C3CCN(Cc4cccnc4)CC3)cnc12 | 34.2 | 30.5 | 44.8 | 14.7 | 10.8 | – | – | – | – | – | – | – | – | – | – | – | –
6 | COc1ccc(-c2cc(N3CCOC[C@@H]3C)c3ncc(C4CCN(Cc5cccnc5)CC4)n3n2)cc1CO | 37.9 | 50.3 | 65 | 15.2 | 11.7 | – | – | – | – | – | – | – | – | – | – | – | –
7 | c1cncc(CN2CCC(c3cnc4c(N5CCOCC5)cc(-c5ccc6[nH]ccc6c5)nn34)CC2)c1 | 94.6 | 68.6 | 96.5 | 95.8 | 84.2 | 5.1 | 13.5 | 7.1 | 8 | – | – | – | – | – | – | – | –
8 | CCc1cnc2c(N3CCOCC3)cc(-c3ccc(NC(=O)Nc4cccnc4)cc3)nn12 | – | – | – | – | – | > 40 | > 40 | 1.9 | > 40 | > 40 | > 40 | Insoluble | – | – | – | – | –
9 | COC(=O)N1CCC(c2cnc3c(N4CCOC[C@@H]4C)cc(-c4cccc(CO)c4)nn23)CC1 | 34.6 | 0.2 | 40.4 | 16.3 | -5.2 | – | – | – | – | – | – | – | – | – | – | – | –
10 | CN1CCN(c2ccc(NC(=O)Nc3ccc(-c4cc(N5CCOCC5)c5nccn5n4)cc3)cc2)CC1 | – | – | – | – | – | 4.9 | 4.3 | 3.3 | 1.6 | 3 | 7.8 | – | – | – | – | – | –
11 | CCc1cnc2c(N3CCOC[C@@H]3C)cc(-c3ccc(NC(=O)Nc4cccnc4)cc3)nn12 | – | – | – | – | – | 8.4 | 6.6 | 5.3 | 4.2 | 3.7 | 7.3 | Insoluble | – | – | – | – | –
12 | C[C@H]1COCCN1c1cc(-c2cnc(N)nc2)nn2c(C3CCN(C(=O)c4cccnc4)CC3)cnc12 | 32 | 9.4 | 42.1 | 17.8 | 11.7 | – | – | – | – | – | – | – | – | – | – | – | –
13 | C[C@H]1COCCN1c1cc(-c2cccc(CO)c2)nn2c(C3CCN(S(C)(=O)=O)CC3)cnc12 | 36.1 | -2.3 | 48.1 | 11.6 | 4.5 | – | – | – | – | – | – | – | – | – | – | – | –
14 | COc1ccc(-c2cc(N3CCOC[C@@H]3C)c3ncc(C4CCN(C(=O)c5cccnc5)CC4)n3n2)cc1CO | 42.1 | 17.8 | 46.8 | 19.6 | 4.3 | – | – | – | – | – | – | – | – | – | – | – | –
15 | COc1ccc(-c2cc(N3CCOC[C@@H]3C)c3ncc(C4CCN(S(C)(=O)=O)CC4)n3n2)cc1CO | 45.1 | 12.7 | 49.6 | 21.2 | 4 | – | – | – | – | – | – | – | – | – | – | – | –
16 | COc1ccc(NC(=O)Nc2ccc(-c3cc(N4CCOC[C@@H]4C)c4nccn4n3)cc2)cc1 | – | – | – | – | – | 7.9 | 5.7 | 2.7 | 7.7 | 4.2 | 10.5 | – | – | – | – | – | –

Row | Compound | inhibition of growth at 20 µM (MCF7 [1]) [%] | inhibition of growth at 20 µM (HeLa) [%] | inhibition of growth at 20 µM (A549 [2]) [%] | inhibition of growth at 20 µM (A-375 [3]) [%] | inhibition of growth at 20 µM [4] [%] | IC50 [5] [µM] | IC50 (MCF7 [6]) [µM] | IC50 (A549 [7]) [µM] | IC50 (A-375 [8]) [µM] | IC50 (NCI-H460) [µM] | IC50 (HEK293) [µM] | solubility [9] | inhibition [10] [%] | inhibition [11] [%] | inhibition [12] [%] | inhibition [13] [%] | IC50 [14] [µM]
17 | Cc1cnc2c(N3CCOC[C@@H]3C)cc(-c3ccc(NC(=O)Nc4cccnc4)cc3)nn12 | – | – | – | – | – | 10.8 | 7.8 | 1.2 | 3.3 | 7.3 | 8.2 | Insoluble | – | – | – | – | –
18 | Oc1cccc(-c2nc(N3CCOCC3)c3oc4ncccc4c3n2)c1 | – | – | – | – | – | – | – | – | – | – | – | – | 98 | 101 | 96 | 99 | –
19 | C[C@H]1COCCN1c1cc(-c2ccc3[nH]ccc3c2)nn2c(C3CCN(S(C)(=O)=O)CC3)cnc12 | 55.3 | 47.4 | 34 | 29.4 | 45.4 | – | – | – | – | – | – | – | – | – | – | – | –
20 | CN1CCN(c2ccc(NC(=O)Nc3ccc(-c4cc(N5CC6CCC(C5)O6)c5nccn5n4)cc3)cc2)CC1 | – | – | – | – | – | 4.3 | 2.9 | 3.1 | 1.8 | 2.9 | 12.1 | – | – | – | – | – | –
21 | Cc1cnc2c(N3CCOCC3)cc(-c3ccc(NC(=O)Nc4cccnc4)cc3)nn12 | – | – | – | – | – | 12.9 | 16.3 | 5 | 6.4 | 6.8 | 11.5 | Insoluble | – | – | – | – | –
22 | Cc1cnc2c(N3CCOC[C@@H]3C)cc(-c3ccc(NC(=O)Nc4ccncc4)cc3)nn12 | – | – | – | – | – | > 40 | > 40 | 2.1 | 2.3 | > 40 | > 40 | Insoluble | – | – | – | – | –
23 | C[C@H]1COCCN1c1cc(-c2ccc3[nH]ccc3c2)nn2c(C3CCN(Cc4cccnc4)CC3)cnc12 | 96.5 | 73.6 | 84 | 96.7 | 84.4 | 7.9 | 6.3 | 7.7 | 3.4 | – | – | – | – | – | – | – | –
24 | Cc1cnc2c(N3CCOCC3)cc(-c3ccc(NC(=O)Nc4ccncc4)cc3)nn12 | – | – | – | – | – | > 40 | > 40 | > 40 | > 40 | > 40 | > 40 | Insoluble | – | – | – | – | –
25 | COC(=O)N1CCC(c2cnc3c(N4CCOC[C@@H]4C)cc(-c4ccc5[nH]ccc5c4)nn23)CC1 | 43.2 | 56 | 16 | 33.8 | 26.4 | – | – | – | – | – | – | – | – | – | – | – | –
26 | C[C@H]1COCCN1c1cc(-c2cnc(N)nc2)nn2c(C3CCN(S(C)(=O)=O)CC3)cnc12 | 24.3 | 4.4 | 39.5 | 17.5 | 1.5 | – | – | – | – | – | – | – | – | – | – | – | –
27 | C[C@H]1COCCN1c1cc(-c2ccc(NC(=O)Nc3ccc(N4CCN(C)CC4)cc3)cc2)nn2ccnc12 | – | – | – | – | – | 2.6 | 3.5 | 1.5 | 2 | 2 | 8.4 | – | – | – | – | – | –
28 | CCc1cnc2c(N3CCOC[C@@H]3C)cc(-c3ccc(NC(=O)Nc4ccncc4)cc3)nn12 | – | – | – | – | – | 5.1 | 4.7 | 5.9 | 4.1 | 2.8 | 7.5 | Insoluble | – | – | – | – | –
29 | O=C(Nc1ccncc1)Nc1ccc(-c2cc(N3CCOCC3)c3nccn3n2)cc1 | – | – | – | – | – | 11.1 | 21.9 | 2.8 | 7.2 | 20.7 | 12.4 | – | – | – | – | – | –
30 | O=C(Nc1ccncc1)Nc1ccc(-c2cc(N3CC4CCC(C3)O4)c3nccn3n2)cc1 | – | – | – | – | – | 11.7 | 6.3 | 2.3 | 10.9 | 2.2 | 3.4 | – | – | – | – | – | –
31 | COc1ccc(-c2ccc3c(N4CCOC[C@@H]4C)nc(N4CCOC[C@@H]4C)nc3n2)cc1CO [AZD-8055] | – | – | – | – | – | 0.19 | 0.14 | 0.05 | 0.12 | 0.01 | 1.4 | – | 29 | 70 | 59 | 12 | 5.58
